Laboratory results from PubChem BioAssay (NCI).
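Grown in 96-well plates, cells were treated for 48 hours with each compound at five concentrations. Insufficient inhibition: endpoint recorded as highest concentration tested. TGI is the concentration that stops growth completely.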

What was measured:
Test in all cases: NCI anticancer screen, dose series, 48 h
786-0 renal = tested on: 786-0 renal
A498 renal = tested on: A498 renal
A549 NSCLC = tested on: A549 NSCLC
ACHN renal = tested on: ACHN renal
BT-549 breast = tested on: BT-549 breast
CCRF-CEM leukemia = tested on: CCRF-CEM leukemia
COLO 205 colon = tested on: COLO 205 colon
DU-145 prostate = tested on: DU-145 prostate
EKVX NSCLC = tested on: EKVX NSCLC
HCT-116 colon = tested on: HCT-116 colon
HCT-15 colon = tested on: HCT-15 colon
HL-60(TB) leukemia = tested on: HL-60(TB) leukemia
HOP-62 NSCLC = tested on: HOP-62 NSCLC
HS 578T breast = tested on: HS 578T breast
HT29 colon = tested on: HT29 colon
IGROV1 ovarian = tested on: IGROV1 ovarian
K-562 leukemia = tested on: K-562 leukemia
KM12 colon = tested on: KM12 colon
LOX IMVI melanoma = tested on: LOX IMVI melanoma
M14 melanoma = tested on: M14 melanoma
MALME-3M melanoma = tested on: MALME-3M melanoma
MCF7 breast = tested on: MCF7 breast
MDA-MB-231 breast = tested on: MDA-MB-231 breast
MDA-MB-435 = tested on: MDA-MB-435
MDA-N = tested on: MDA-N
MOLT-4 leukemia = tested on: MOLT-4 leukemia
NCI-H226 lung = tested on: NCI-H226 lung
NCI-H23 lung = tested on: NCI-H23 lung
NCI-H460 lung = tested on: NCI-H460 lung
NCI-H522 lung = tested on: NCI-H522 lung
NCI/ADR-RES ovarian = tested on: NCI/ADR-RES ovarian
OVCAR-3 ovarian = tested on: OVCAR-3 ovarian
OVCAR-4 ovarian = tested on: OVCAR-4 ovarian
OVCAR-5 ovarian = tested on: OVCAR-5 ovarian
OVCAR-8 ovarian = tested on: OVCAR-8 ovarian
PC-3 prostate = tested on: PC-3 prostate
RPMI-8226 leukemia = tested on: RPMI-8226 leukemia
RXF 393 renal = tested on: RXF 393 renal
SF-268 CNS = tested on: SF-268 CNS
SF-295 CNS = tested on: SF-295 CNS
SF-539 CNS = tested on: SF-539 CNS
SK-MEL-2 melanoma = tested on: SK-MEL-2 melanoma
SK-MEL-28 melanoma = tested on: SK-MEL-28 melanoma
SK-MEL-5 melanoma = tested on: SK-MEL-5 melanoma
SK-OV-3 ovarian = tested on: SK-OV-3 ovarian
SN12C renal = tested on: SN12C renal
SNB-19 CNS = tested on: SNB-19 CNS
SNB-75 CNS = tested on: SNB-75 CNS
SW-620 colon = tested on: SW-620 colon
TK-10 renal = tested on: TK-10 renal
U251 CNS = tested on: U251 CNS
UACC-257 melanoma = tested on: UACC-257 melanoma
UACC-62 melanoma = tested on: UACC-62 melanoma
UO-31 renal = tested on: UO-31 renal
CAKI-1 renal = tested on: CAKI-1 renal
HCC-2998 colon = tested on: HCC-2998 colon
HOP-92 NSCLC = tested on: HOP-92 NSCLC
SR leukemia = tested on: SR leukemia

With `COc1cc(/C=C2\CCC/C(=C\c3ccc(OC(=O)CCCCC4CCSS4)c(OC)c3)C2=O)ccc1OC(=O)CCCCC1CCSS1` (stereo not given) the TGI (786-0 renal) was > 100 µM, the TGI (A498 renal) was > 100 µM and the TGI (A549 NSCLC) was > 100 µM. The TGI (ACHN renal) was > 100 µM, the TGI (BT-549 breast) was > 100 µM and the TGI (CCRF-CEM leukemia) was > 100 µM. For the same compound, the TGI (COLO 205 colon) was > 100 µM, the TGI (DU-145 prostate) was > 100 µM and the TGI (EKVX NSCLC) was > 100 µM. The TGI (HCT-116 colon) was > 100 µM, the TGI (HCT-15 colon) was > 100 µM and the TGI (HL-60(TB) leukemia) was > 100 µM. The TGI (HOP-62 NSCLC) was > 100 µM, the TGI (HS 578T breast) was > 100 µM and the TGI (HT29 colon) was > 100 µM. For the same compound, the TGI (IGROV1 ovarian) was > 100 µM, the TGI (K-562 leukemia) was > 100 µM and the TGI (KM12 colon) was > 100 µM. For the same compound, the TGI (LOX IMVI melanoma) was > 100 µM, the TGI (M14 melanoma) was > 100 µM and the TGI (MALME-3M melanoma) was > 100 µM. For the same compound, the TGI (MCF7 breast) was > 100 µM, the TGI (MDA-MB-231 breast) was > 100 µM and the TGI (MDA-MB-435) was > 100 µM. For the same compound, the TGI (MDA-N) was > 100 µM, the TGI (MOLT-4 leukemia) was > 100 µM and the TGI (NCI-H226 lung) was > 100 µM. For the same compound, the TGI (NCI-H23 lung) was > 100 µM, the TGI (NCI-H460 lung) was > 100 µM and the TGI (NCI-H522 lung) was > 100 µM. For the same compound, the TGI (NCI/ADR-RES ovarian) was > 100 µM, the TGI (OVCAR-3 ovarian) was > 100 µM and the TGI (OVCAR-4 ovarian) was > 100 µM. The TGI (OVCAR-5 ovarian) was > 100 µM, the TGI (OVCAR-8 ovarian) was > 100 µM and the TGI (PC-3 prostate) was > 100 µM. For the same compound, the TGI (RPMI-8226 leukemia) was > 100 µM, the TGI (RXF 393 renal) was > 100 µM and the TGI (SF-268 CNS) was > 100 µM. The TGI (SF-295 CNS) was > 100 µM, the TGI (SF-539 CNS) was > 100 µM and the TGI (SK-MEL-2 melanoma) was > 100 µM. For the same compound, the TGI (SK-MEL-28 melanoma) was > 100 µM, the TGI (SK-MEL-5 melanoma) was > 100 µM and the TGI (SK-OV-3 ovarian) was > 100 µM. The TGI (SN12C renal) was > 100 µM, the TGI (SNB-19 CNS) was > 100 µM and the TGI (SNB-75 CNS) was > 100 µM. The TGI (SW-620 colon) was > 100 µM, the TGI (TK-10 renal) was > 100 µM and the TGI (U251 CNS) was > 100 µM. The TGI (UACC-257 melanoma) was > 100 µM, the TGI (UACC-62 melanoma) was > 100 µM and the TGI (UO-31 renal) was > 100 µM.
With `O=[N+]([O-])c1ccc2sc(C=Nc3ccc(O)cc3)cc2c1` the TGI (786-0 renal) was 40.4 µM, the TGI (A498 renal) was > 100 µM and the TGI (A549 NSCLC) was > 100 µM. For the same compound, the TGI (ACHN renal) was > 100 µM, the TGI (BT-549 breast) was > 100 µM and the TGI (CAKI-1 renal) was 43.5 µM. For the same compound, the TGI (CCRF-CEM leukemia) was 59.6 µM, the TGI (COLO 205 colon) was > 100 µM and the TGI (DU-145 prostate) was > 100 µM. The TGI (EKVX NSCLC) was > 100 µM, the TGI (HCC-2998 colon) was 56.6 µM and the TGI (HCT-116 colon) was > 100 µM. For the same compound, the TGI (HCT-15 colon) was > 100 µM, the TGI (HL-60(TB) leukemia) was 53.2 µM and the TGI (HOP-62 NSCLC) was > 100 µM. The TGI (HOP-92 NSCLC) was > 100 µM, the TGI (HS 578T breast) was 66.4 µM and the TGI (HT29 colon) was > 100 µM. For the same compound, the TGI (IGROV1 ovarian) was > 100 µM, the TGI (K-562 leukemia) was 43 µM and the TGI (KM12 colon) was > 100 µM. For the same compound, the TGI (LOX IMVI melanoma) was 51.2 µM, the TGI (M14 melanoma) was > 100 µM and the TGI (MALME-3M melanoma) was > 100 µM. It also gave a TGI (MCF7 breast) of 47.7 µM, a TGI (MDA-MB-231 breast) of 44.5 µM and a TGI (MDA-MB-435) of 34.3 µM. For the same compound, the TGI (MDA-N) was 80.6 µM, the TGI (MOLT-4 leukemia) was 44.6 µM and the TGI (NCI-H23 lung) was > 100 µM. For the same compound, the TGI (NCI-H460 lung) was > 100 µM, the TGI (NCI-H522 lung) was > 100 µM and the TGI (NCI/ADR-RES ovarian) was > 100 µM. The TGI (OVCAR-3 ovarian) was 28.6 µM, the TGI (OVCAR-5 ovarian) was > 100 µM and the TGI (OVCAR-8 ovarian) was > 100 µM. The TGI (PC-3 prostate) was > 100 µM, the TGI (RPMI-8226 leukemia) was 79.7 µM and the TGI (RXF 393 renal) was 57.9 µM. The TGI (SF-268 CNS) was > 100 µM, the TGI (SF-295 CNS) was > 100 µM and the TGI (SF-539 CNS) was 55.4 µM. The TGI (SK-MEL-2 melanoma) was 59 µM, the TGI (SK-MEL-28 melanoma) was > 100 µM and the TGI (SK-MEL-5 melanoma) was 68 µM. For the same compound, the TGI (SK-OV-3 ovarian) was > 100 µM, the TGI (SN12C renal) was > 100 µM and the TGI (SNB-19 CNS) was > 100 µM. The TGI (SNB-75 CNS) was 49.9 µM, the TGI (SR leukemia) was 97 µM and the TGI (SW-620 colon) was 43.9 µM. For the same compound, the TGI (TK-10 renal) was > 100 µM, the TGI (U251 CNS) was 42.7 µM and the TGI (UACC-257 melanoma) was 56.2 µM. For the same compound, the TGI (UACC-62 melanoma) was 61.9 µM and the TGI (UO-31 renal) was > 100 µM.
